Source: PubChem BioAssay (NCI)
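All cell lines were grown in 96-well plates and treated with compound for 48 hours. TGI: concentration producing complete growth inhibition.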

How the values were obtained:
Experiment in all cases: inhibition of tumour cell growth, NCI panel, 48 h
[1] = system: 786-0 renal
[2] = system: A498 renal
[3] = system: A549 NSCLC
[4] = system: ACHN renal
[5] = system: BT-549 breast
[6] = system: CAKI-1 renal
[7] = system: CCRF-CEM leukemia
[8] = system: COLO 205 colon
[9] = system: DU-145 prostate
[10] = system: EKVX NSCLC
[11] = system: HCC-2998 colon
[12] = system: HCT-116 colon
[13] = system: HCT-15 colon
[14] = system: HL-60(TB) leukemia
[15] = system: HOP-62 NSCLC
[16] = system: HS 578T breast
[17] = system: IGROV1 ovarian
[18] = system: K-562 leukemia
[19] = system: KM12 colon
[20] = system: LOX IMVI melanoma
[21] = system: M14 melanoma
[22] = system: MALME-3M melanoma
[23] = system: MCF7 breast
[24] = system: MDA-MB-231 breast
[25] = system: MDA-MB-435
[26] = system: MDA-N
[27] = system: MOLT-4 leukemia
[28] = system: NCI-H226 lung
[29] = system: NCI-H23 lung
[30] = system: NCI-H460 lung
[31] = system: NCI-H522 lung
[32] = system: NCI/ADR-RES ovarian
[33] = system: OVCAR-3 ovarian
[34] = system: OVCAR-4 ovarian
[35] = system: OVCAR-5 ovarian
[36] = system: OVCAR-8 ovarian
[37] = system: PC-3 prostate
[38] = system: RPMI-8226 leukemia
[39] = system: RXF 393 renal
[40] = system: SF-268 CNS
[41] = system: SF-295 CNS
[42] = system: SF-539 CNS
[43] = system: SK-MEL-2 melanoma
[44] = system: SK-MEL-28 melanoma
[45] = system: SK-MEL-5 melanoma
[46] = system: SK-OV-3 ovarian
[47] = system: SN12C renal
[48] = system: SNB-19 CNS
[49] = system: SNB-75 CNS
[50] = system: SR leukemia
[51] = system: SW-620 colon
[52] = system: T-47D breast
[53] = system: TK-10 renal
[54] = system: U251 CNS
[55] = system: UACC-257 melanoma
[56] = system: UACC-62 melanoma
[57] = system: UO-31 renal
[58] = system: HOP-92 NSCLC
[59] = system: HT29 colon

With CCOC(=O)N1CC2(C(=O)OC)C=CC1C(C(=O)OC)C2 (stereo not given) as the molecule, how does the TGI [1] read?
Its TGI is greater than 100 µM.

What about the TGI [2] of the same molecule?
Its TGI is greater than 100 µM.

And the TGI [3]?
Its TGI is greater than 100 µM.

And the TGI [4]?
The TGI was greater than 100 µM.

And the TGI [5]?
Its TGI is greater than 100 µM.

What about the TGI [6] of the same molecule?
Its TGI is greater than 100 µM.

What about the TGI [7] of the same molecule?
The TGI was greater than 100 µM.

And the TGI [8]?
The TGI was greater than 100 µM.

What about the TGI [9] of the same molecule?
Its TGI is greater than 100 µM.

And the TGI [10]?
The TGI was greater than 100 µM.

And the TGI [11]?
The TGI was greater than 100 µM.

What about the TGI [12] of the same molecule?
Its TGI is greater than 100 µM.

And the TGI [13]?
Its TGI is greater than 100 µM.

And the TGI [14]?
The TGI was greater than 100 µM.

What about the TGI [15] of the same molecule?
The TGI was greater than 100 µM.

And the TGI [16]?
The TGI was greater than 100 µM.

And the TGI [17]?
The TGI was greater than 100 µM.

What about the TGI [18] of the same molecule?
The TGI was greater than 100 µM.

And the TGI [19]?
The TGI was greater than 100 µM.

What about the TGI [20] of the same molecule?
The TGI was greater than 100 µM.

What about the TGI [21] of the same molecule?
The TGI was greater than 100 µM.

And the TGI [22]?
The TGI was greater than 100 µM.

What about the TGI [23] of the same molecule?
The TGI was greater than 100 µM.

And the TGI [24]?
The TGI was greater than 100 µM.

And the TGI [25]?
Its TGI is greater than 100 µM.

And the TGI [26]?
Its TGI is greater than 100 µM.

What about the TGI [27] of the same molecule?
The TGI was greater than 100 µM.

What about the TGI [28] of the same molecule?
Its TGI is greater than 100 µM.

And the TGI [29]?
The TGI was greater than 100 µM.

And the TGI [30]?
The TGI was greater than 100 µM.

And the TGI [31]?
Its TGI is greater than 100 µM.

And the TGI [32]?
Its TGI is greater than 100 µM.

What about the TGI [33] of the same molecule?
The TGI was greater than 100 µM.

What about the TGI [34] of the same molecule?
Its TGI is greater than 100 µM.

What about the TGI [35] of the same molecule?
The TGI was greater than 100 µM.

And the TGI [36]?
The TGI was greater than 100 µM.

What about the TGI [37] of the same molecule?
The TGI was greater than 100 µM.

And the TGI [38]?
The TGI was greater than 100 µM.

What about the TGI [39] of the same molecule?
The TGI was greater than 100 µM.

What about the TGI [40] of the same molecule?
Its TGI is greater than 100 µM.

And the TGI [41]?
Its TGI is greater than 100 µM.

What about the TGI [42] of the same molecule?
The TGI was greater than 100 µM.

And the TGI [43]?
The TGI was greater than 100 µM.

What about the TGI [44] of the same molecule?
Its TGI is greater than 100 µM.

What about the TGI [45] of the same molecule?
Its TGI is greater than 100 µM.

And the TGI [46]?
Its TGI is greater than 100 µM.

And the TGI [47]?
Its TGI is greater than 100 µM.

What about the TGI [48] of the same molecule?
Its TGI is greater than 100 µM.

And the TGI [49]?
Its TGI is greater than 100 µM.

What about the TGI [50] of the same molecule?
The TGI was greater than 100 µM.

What about the TGI [51] of the same molecule?
The TGI was greater than 100 µM.

And the TGI [52]?
Its TGI is greater than 100 µM.

What about the TGI [53] of the same molecule?
Its TGI is greater than 100 µM.

What about the TGI [54] of the same molecule?
The TGI was greater than 100 µM.

What about the TGI [55] of the same molecule?
Its TGI is greater than 100 µM.

What about the TGI [56] of the same molecule?
The TGI was greater than 100 µM.

And the TGI [57]?
The TGI was greater than 100 µM.

For O=C(CC(=O)N(C(=O)c1ccccc1)c1ccc(Cl)cc1)N/N=C\c1ccccc1O, which TGI [1] is on record?
Its TGI is greater than 100 µM.

What about the TGI [2] of the same molecule?
Its TGI is greater than 100 µM.

What about the TGI [3] of the same molecule?
Its TGI is greater than 100 µM.

And the TGI [4]?
The TGI was greater than 100 µM.

What about the TGI [5] of the same molecule?
Its TGI is greater than 100 µM.

And the TGI [6]?
Its TGI is greater than 100 µM.

And the TGI [7]?
The TGI was greater than 100 µM.

What about the TGI [8] of the same molecule?
Its TGI is greater than 100 µM.

What about the TGI [9] of the same molecule?
Its TGI is greater than 100 µM.

What about the TGI [10] of the same molecule?
The TGI was greater than 100 µM.

And the TGI [11]?
The TGI was greater than 100 µM.

What about the TGI [12] of the same molecule?
Its TGI is greater than 100 µM.

And the TGI [13]?
The TGI was greater than 100 µM.

What about the TGI [14] of the same molecule?
The TGI was greater than 100 µM.

What about the TGI [15] of the same molecule?
The TGI was 89.2 µM.

And the TGI [58]?
Its TGI is 75 µM.

What about the TGI [16] of the same molecule?
The TGI was 81.3 µM.

And the TGI [59]?
The TGI was greater than 100 µM.

What about the TGI [17] of the same molecule?
Its TGI is greater than 100 µM.

What about the TGI [18] of the same molecule?
The TGI was greater than 100 µM.

What about the TGI [19] of the same molecule?
The TGI was greater than 100 µM.

And the TGI [20]?
Its TGI is greater than 100 µM.

And the TGI [21]?
Its TGI is greater than 100 µM.

And the TGI [22]?
The TGI was greater than 100 µM.

What about the TGI [23] of the same molecule?
Its TGI is greater than 100 µM.

What about the TGI [24] of the same molecule?
Its TGI is greater than 100 µM.

What about the TGI [25] of the same molecule?
The TGI was greater than 100 µM.

And the TGI [26]?
Its TGI is greater than 100 µM.

What about the TGI [27] of the same molecule?
Its TGI is greater than 100 µM.

What about the TGI [28] of the same molecule?
Its TGI is greater than 100 µM.

What about the TGI [29] of the same molecule?
Its TGI is greater than 100 µM.

And the TGI [30]?
The TGI was greater than 100 µM.

And the TGI [31]?
Its TGI is greater than 100 µM.

What about the TGI [32] of the same molecule?
The TGI was greater than 100 µM.

What about the TGI [33] of the same molecule?
Its TGI is greater than 100 µM.

And the TGI [34]?
Its TGI is greater than 100 µM.

And the TGI [35]?
Its TGI is greater than 100 µM.

And the TGI [36]?
Its TGI is greater than 100 µM.

And the TGI [37]?
The TGI was greater than 100 µM.

What about the TGI [38] of the same molecule?
The TGI was greater than 100 µM.

And the TGI [39]?
The TGI was greater than 100 µM.

And the TGI [40]?
The TGI was greater than 100 µM.

And the TGI [41]?
Its TGI is 80.9 µM.

And the TGI [42]?
The TGI was greater than 100 µM.

What about the TGI [43] of the same molecule?
The TGI was greater than 100 µM.

What about the TGI [44] of the same molecule?
The TGI was greater than 100 µM.

What about the TGI [45] of the same molecule?
The TGI was greater than 100 µM.

What about the TGI [46] of the same molecule?
The TGI was 54.3 µM.

And the TGI [47]?
Its TGI is greater than 100 µM.

What about the TGI [48] of the same molecule?
Its TGI is greater than 100 µM.

What about the TGI [49] of the same molecule?
The TGI was 67.4 µM.

And the TGI [50]?
Its TGI is greater than 100 µM.

What about the TGI [51] of the same molecule?
The TGI was greater than 100 µM.

And the TGI [52]?
Its TGI is greater than 100 µM.

And the TGI [53]?
The TGI was greater than 100 µM.

What about the TGI [54] of the same molecule?
The TGI was greater than 100 µM.

What about the TGI [55] of the same molecule?
The TGI was greater than 100 µM.

And the TGI [57]?
Its TGI is greater than 100 µM.
